Source: patent US10407488B2, “Therapy for treatment or prevention of conditions associated with bleeding or hypocoagulation” (THE REGENTS OF THE UNIVERSITY OF CALIFORNIA, priority 2013, dated 2019)

Legend:
Balb/c mice = test: Ex vivo whole blood aPTT after intravenous APC in Balb/c mice; design: species or system mouse
Description: Recombinant murine APC was administered intravenously to Balb/c mice by tail vein injection 2 minutes prior to retroorbital blood harvest in siliconized microcapillaries (75 μL) prefilled with 20 μL Sodium-Citrate (3.8%). Whole blood aPTT was performed immediately, whereby 50 μL of blood were mixed with 50 μL of aPTT reagent (APTT-XL, Pacific Hemostasis) and incubated at 37° C. for 3 minutes in the presence of FVa or buffer. Following addition of 25 μL of 130 mM CaCl2 in HBS, 0.5% BSA, the clotting time was recorded using an ST4 coagulometer (Diagnostica Stago).

[1] = tested on: thrombin generation in FVIII-deficient plasma; settings: von Drygalski et al. JTH 2014; cited from earlier work
[2] = tested on: thrombin generation in FVIII-deficient plasma; test: Thrombin generation (ETP) assay in FVIII-deficient plasma; format: biochemical, human; settings: increasing concentrations of ^superFVa alone
Description: (§1) Endogenous thrombin potential (ETP) assays were performed as described (19). Briefly, plasma samples supplemented with CTI, TF, PCPS vesicles and coagulation factors were preincubated with the plasma at 37° C. Thrombin generation was initiated by addition of CaCl2 and Z-Gly-Gly-Arg-AMC in HBS/0.5% BSA. The final reaction mixture contained, 50% plasma, 0.2 pM TF, […] PCPS vesicles, 0.725 μM CTI, 0.5 mM Z-GGR-AMC and 7.6 mM CaCl2 in a total volume of 100 μL. In some experiments, 1.25 μg/ml anti-FVIII antibody was added to the plasma and ETP was determined after 1 hour of preincubation. Fluorescence was measured at excitation/emission wavelengths of […] using Gemini EM fluorescent plate reader (Molecular Devices). Fluorescence time course data were converted to nM thrombin as described (20). ETP, defined as the area under the curve (AUC) and the peak height were determined using Origin or GraphPad Prism software.

[3] = tested on: thrombin generation in murine Balb/c plasma with rhAPC; test: Thrombin generation in murine Balb/c plasma in the presence of rhAPC; format: biochemical, mouse
Description: BU titer values for FVIII antibodies added to FVIII-deficient plasma were determined using a modified Nijmegen Bethesda assay (Barrow and Lollar; JTH 2006, 4:2223-2229). Briefly, antibody was serially diluted in HBS with 0.05% Tween 80 and mixed 1:1 with pooled normal plasma that was supplemented with 100 mM Imidazole, pH 7.0. Samples were incubated at 37° C. for 2 hours then assayed by aPTT with APTT XL reagent (Pacific Hemostasis). A standard curve was derived from a serial dilution of normal plasma into FVIII deficient plasma that was also mixed 1:1 with HBST and incubated at 37° C. for 2 hours. Percent FVIII activity was plotted versus mg/ml of antibody and residual activity of 50% was defined as 1 BU/ml. In addition, endogenous thrombin potential (ETP) assays were performed as described (3). Briefly FVa mutants or saline were added to human or murine plasma (George King Bio-Medical; mouse source, 50% v/v) supplemented with […] corn trypsin inhibitor (Haematologic Technologies), 10 mM CaCl2, 10 μM phospholipid vesicles (80% phosphatidylcholine, 20% phosphatidylserine, prepared as described (6), 0.2 pM soluble tissue factor (Innovin®, Dade Behring), and 0.4 mM Z-Gly-Gly-Arg-AMC (thrombin substrate, Bachem) in HBS. After mixing, 100 μL was transferred to a FluoroNunc microtiter plate at 37° C. to monitor fluorescence (excitation at 360 nm/emission at 460 nm; Gemini EM fluorescent plate reader (Molecular Devices)). Fluorescence time course data were converted to nM thrombin as described (7). ETP, defined as the area under the curve, was determined using Prism 5.04 (Graphpad).
(§2) APC-mediated inactivation of FVa was analyzed in ETP assays and aPTT clotting assays. FVa mutants were incubated with equal volumes of either recombinant human APC (Xigris®) or buffer in human and murine Balb/c plasma.

[4] = tested on: aPTT clotting time in human plasma; test: aPTT clotting assay in human plasma with rhAPC; format: biochemical
Description: as §2
Plasma (50 μL) was mixed with 50 μL of a PTT reagent (APTT-XL, Pacific Hemostasis) and incubated at 37° C. for 3 minutes in the presence of FVa either with recombinant human APC or buffer. Following addition of 25 μL of 50 mM CaCl2 in HBS, 0.5% BSA, the clotting time was recorded using an ST4 coagulometer (Diagnostica Stago).

[5] = tested on: thrombin generation in patient plasma; test: Thrombin generation in plasma of inhibitor patients before and 5 minutes after rhFVIIa infusion, ^superFVa added ex vivo; format: biochemical, human
Source text: Normal pooled human plasma and plasma from human FVIII-deficient patients with and without inhibitors (titer specified in Bethesda Units (BU)) was purchased from George King Bio-Medical (Overland Park, Kans., USA). In addition, plasma and clinical information was obtained from two patients with severe FVIII-deficiency (<1% intrinsic FVIII-activity levels) and inhibitors (titers determined in BU by the clinical laboratory using the Nijmegen assay (17) regularly visiting the Hemophilia Treatment Center at the University of California, San Diego (UCSD) after informed consent was obtained. Patient confidentiality safeguards, sample and data acquisition methods were approved by the UCSD Institutional Review Board. Blood was drawn into 3.8% sodium citrate (pH 5.5) at a 9:1 blood/anticoagulant volume ratio, and processed immediately. Plasma was collected and frozen at −80° C. after centrifugation at 2600×g for 15 minutes. The following reagents were used: Thrombin from Enzyme Research Laboratories (South Bend, Ind., USA), hirudin from Calbiochem (San Diego, Calif., USA), Corn trypsin inhibitor (CTI) from Enzyme Research Laboratories, thrombin calibrator from Synapse BV (distributed by Diagnostica Stago), Substrate Z-Gly-Gly-Arg-AMC from Bachem (Bubendorf Switzerland), recombinant human tissue factor (TF), Dade Innovin from Dade Behring (Newark, Del., USA), mouse anti-human FVIII (GMA8015) and isotype antibody (GMA650) from Green mountain antibodies (Burlington, Vt., USA), recombinant human FVIIa, NovoSeven®, from NovoNordisk (Bagsvaerd, Denmark), Phospholipid vesicles (80% phosphatidylcholine (PC), 20% phosphatidylserine (PS)) were purchased from Avanti Lipids (Alabaster, Ala., USA) and prepared as described (18).
as §1
This example relates to the experiments the results of which are contained in FIG. 5. […]

[6] = increasing ^superFVa added ex vivo, plasma before and 5 minutes after rhFVIIa infusion

## ^superFVa: engineered APC-resistant FVa variant (SEQ ID NO:4): R306Q, R506Q, R679Q, Cys609-Cys1691 disulfide, S2183A, B-domain deleted
Balb/c mice; 1 nM added to whole blood after iv APC 0.5 mg/kg
  effect on whole blood aPTT clotting times: significantly normalized aPTT clotting times
Balb/c mice; FVa variant added ex vivo to whole blood drawn after APC 0.5 mg/kg injection
  mean whole blood aPTT: 30 s
[1]
  increase of ETP in human FVIII-deficient plasma: approximately 2 fold
[2]
  increase in ETP: ~2.5 fold
  increase in peak height: ~2.5 fold
[3]; ETP maximally suppressed by APC
  ETP restored: 90-100%
[3]; concentrations where ^superFVa restores
  effect on thrombin generation suppressed by APC: fully restored thrombin generation
[4]; 0.05 U/mL FVa variants, 10 nM APC, human plasma, ~100 seconds without FVa
  aPTT: fully corrected the aPTT
[4]; human plasma with APC
  lower concentration normalizing the aPTT compared to FVa: 100 fold
[5]; Patient A, BU=64
  ^superFVa concentration at which ETP plateaued: 10 nM
[5]; [6]
  additional increase of ETP: ~3 fold
  additional increase of peak height: ~3 fold
[5]; patient with BU=64
  ^superFVa concentration at which ETP plateaued: 1.76 µg/mL
